Data published in patent US4339442A, “Gynosaponins, their use and a process for preparing the same” (priority 1980, dated 1982).

Columns and labels:
Type in all cases: cell-based, male wister rats
[1] = system: fat cells; assay: Decomposition by adrenalin of the fat in the fat cells; settings: adrenalin 1 μg/ml + saponin 20 μg/ml, 37° C., two hours; for inhibition at 20 µg/mL: Rattus norvegicus, 2 h, read-out: Rate of inhibition
Method: A small section was prepared from 4 g of the fat tissue, and placed in 10 ml. of Krebs-Ringer bicarbonate buffer containing 0.4 g of albumin, 10 mg of collagenase and 5 mg of glucose, and having a pH value of 7.4. […] Added into the fat cell were 10 ml. of the aforesaid buffer (pH 7.4), and the solution was carefully stirred to wash the fat cell, followed by centrifugal separation at 300 rpm for 30 seconds. This procedure was repeated twice, whereby the fat cells were washed perfectly, and these fat cells were used for the tests.
The fat cells obtained by treating with collagenase were suspended in Krebs-Ringer phosphate buffer (KRP) having a pH value of 7.4. Placed into a test tube were 0.3 ml. of the solution thus obtained, and containing 100 mg of fat cells, 0.1 ml. of an adrenalin solution containing 1 μg of adrenalin, 0.1 ml. of a saponin solution containing 20 μg of saponin, and 0.5 ml. of a 5% albumin solution in KRP, and having a pH value adjusted to 7.4. […] More specifically, 3 ml. of Dole's extract were placed in the reaction system, and after they were shaked for five minutes, 3 ml. of heptane were dispensed, and 1 ml. of a thymol blue solution was added thereinto. The resulting solution was titrated with a 0.008 N aqueous solution of sodium hydroxide, while it was being stirred with nitrogen, and the amount of the resulting free fatty acid was determined in accordance with a calibration curve.
The rate of inhibition was obtained in accordance with the equation shown at (1) above.

[2] = system: fat cells; assay: Synthesis of fat from glucose in fat cells; settings: 20 μg/ml; for Power for synthesis of neutral fat from glucose: 37° C., half an hour; for activation at 20 µg/mL: Rattus norvegicus, 0.5 h, none = 100, read-out: Rate of promotion
Method: (§1) Fat tissues were separated from the epididymides of male wister rats weighing 150 to 180 g each, and fat cells were obtained therefrom in accordance with the Rodbell's method [M. Rodbell, J. Biol. Chem., 239, 375 (1964)]. A small section was prepared from 4 g of the fat tissue, and placed in 10 ml. of Krebs-Ringer bicarbonate buffer containing 0.4 g of albumin, 10 mg of collagenase and 5 mg of glucose, and having a pH value of 7.4. It was heated at 37° C. for 50 minutes, and subjected to centrifugal separation at 300 rpm, whereby a floating fat cell layer was separated. Added into the fat cell were 10 ml. of the aforesaid buffer (pH 7.4), and the solution was carefully stirred to wash the fat cell, followed by centrifugal separation at 300 rpm for 30 seconds. This procedure was repeated twice, whereby the fat cells were washed perfectly, and these fat cells were used for the tests.
^14 C-glucose having its carbon atoms marked with radioactivity was reacted upon fat cells, and a Geiger count was read to determine the amount of the glucose participating in the fat synthesis and incorporated into the fat cells as a neutral fat, whereby gynosaponins were tested for their effects on the power of the glucose for fat synthesis.
More specifically, the fat cells obtained by treating with collagenase were suspended in KRB, and 0.35 ml. of the resulting solution containing 100 mg of fat cells was placed into a test tube with 0.1 ml. of each saponin solution containing 20 μg of saponin, 0.5 ml. of a 5% albumin solution in KRB, containing 10 mM glucose and having a pH value of 7.4, and 0.05 ml. of a ^14 C-glucose solution which was a 0.5 μCi KRP solution having a pH value of 7.4 and containing 10 mM glucose. They were heated at 37° C. for half an hour, and after 5 ml. of Dole's extract were added and the whole was shaked for five minutes, 3 ml. of heptane and 2 ml. of water were added, and the whole was shaked for five minutes. 3 ml. of a heptane layer were separated, and after an alkaline ethanol solution (0.5 N sodium hydroxide solution, 50 % ethanol solution) was added in the amount of 3 ml., the whole was shaked for five minutes. Then, 1 ml. of an ethanol layer was separated, and 10 ml. of a toluene scintillation solution were added thereinto, followed by determination according to the method of Skipski et al. [Biochem. Biophys. Acta, 106, 386 (1965)].

[3] = system: fat cells; assay: Decomposition of the fat in the fat cell by ACTH; settings: ACTH 1 μg/ml + saponin 20 μg/ml, 37° C., two hours; for inhibition at 20 µg/mL: Rattus norvegicus, 2 h, read-out: Rate of inhibition
Method: as §1
The fat cells obtained by treating with collagenase were suspended in Krebs-Ringer bicarbonate buffer (KRB) having a pH value of 7.4. Placed into a test tube were 0.3 ml. of the solution thus obtained (containing 100 mg of fat cells), 0.1 ml. of ACTH solution containing 1 μg of ACTH, 0.1 ml. of each saponin solution containing 500 μg of saponin, and 0.3 ml. of a 5% alubumin solution in KRB, and having a pH value adjusted to 7.4. They were heated at 37° C. for two hours, and the amount of the resulting free fatty acid was determined in accordance with the Dole's method [V. P. Dole, J. Biol. Chem., 35, 150 (1958)].
Namely, 3 ml. of Dole's extract were separated into the reaction system, and 1 ml. of a thymol blue solution was added thereinto. Nitrogen was blown into the resulting solution, and the solution was titrated with a 0.008 N aqueous solution of sodium hydroxide, while it was being stirred. The amount of the resulting free fatty acid was determined in accordance with a calibration curve.
The rate of inhibition against fat decomposition was obtained in accordance with the following equation: [formula] wherein A stands for the amount of the free fatty acid formed by addition of ACTH along in the amount of 1 μg/ml.; and B stands for the amount of the free fatty acid formed by addition of ACTH and saponin in the amount of 1 μg/ml. and 20 μg/ml., respectively.

Row | SMILES | inhibition at 20 µg/mL [1] | Free fatty acid formed by decomposition of fat [1] | Power for synthesis of neutral fat from glucose [2] | activation at 20 µg/mL [2] | Free fatty acid formed by decomposition of fat [3] | inhibition at 20 µg/mL [3]
1 | CC(C)=CCC[C@](C)(O[C@@H]1O[C@H](CO)[C@@H](O)[C@H](O)[C@H]1O)[C@H]1CC[C@]2(C)[C@@H]1[C@H](O)C[C@@H]1[C@@]3(C)CC[C@H](O[C@@H]4O[C@H](CO[C@@H]5O[C@@H](C)[C@H](O)[C@@H](O)[C@H]5O)[C@@H](O)[C@H](O)[C@H]4O)C(C)(C)[C@@H]3CC[C@]12C [gynosaponin K, 20S-Protopanaxadiol-3-O-[α-L-rhamnopyranosyl (1→6)-β-D-glucopyranoside]-20-O-β-D-glucopyranoside] | 2% | 13.8 μ Eq/g | 13,600 cpm/g | 63% | 6.1 μ Eq/g | 27%
2 | CC(C)=CCC[C@](C)(O[C@@H]1O[C@H](CO[C@@H]2O[C@@H](C)[C@H](O)[C@@H](O)[C@H]2O)[C@@H](O)[C@H](O)[C@H]1O)[C@H]1CC[C@]2(C)[C@@H]1[C@H](O)C[C@@H]1[C@@]3(C)CC[C@H](O[C@@H]4O[C@H](CO)[C@@H](O)[C@H](O)[C@H]4O)C(C)(C)[C@@H]3CC[C@]12C [gynosaponin J, 20S-Protopanaxadiol-3-O-β-D-glucopyranoside-20-O-[α-L-rhamnopyranosyl (1→6)-β-D-glucopyranoside]] | 7% | 13.1 μ Eq/g | 11,650 cpm/g | 54% | 5.3 μ Eq/g | 37%
